Source: patent US20220089575A1, “FARNESOID X RECEPTOR AGONISTS AND USES THEREOF” (Metacrine, Inc., priority 2017, published 2022)

Each compound was assayed against T1, hFXR (Homo sapiens, UniProt Q96RI1) (assay: In Vitro FXR Assay (TK): TK-ECRE-luc reporter in transfected CV-1 cells). Conditions: 18 hrs, luminescence, maximum efficacy of <25% of the Fexarmine control classified as '+'.
T1 construct: expressed in transfected cells; host or cells: CV-1 cells
T1 sequence (Q96RI1 1-486): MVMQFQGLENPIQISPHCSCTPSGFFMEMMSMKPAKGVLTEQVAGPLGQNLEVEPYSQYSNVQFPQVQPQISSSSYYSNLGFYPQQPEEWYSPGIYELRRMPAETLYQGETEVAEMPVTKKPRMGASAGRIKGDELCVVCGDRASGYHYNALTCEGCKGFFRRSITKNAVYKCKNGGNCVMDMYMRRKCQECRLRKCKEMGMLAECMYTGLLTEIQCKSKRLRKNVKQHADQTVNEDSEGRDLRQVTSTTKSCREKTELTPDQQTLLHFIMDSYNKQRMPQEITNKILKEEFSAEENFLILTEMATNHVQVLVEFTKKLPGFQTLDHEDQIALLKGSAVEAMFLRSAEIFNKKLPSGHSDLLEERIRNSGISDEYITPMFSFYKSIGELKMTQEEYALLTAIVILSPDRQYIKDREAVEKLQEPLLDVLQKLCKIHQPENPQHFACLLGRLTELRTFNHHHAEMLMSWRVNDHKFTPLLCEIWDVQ
T1 sequence (P19793 1-462 partner): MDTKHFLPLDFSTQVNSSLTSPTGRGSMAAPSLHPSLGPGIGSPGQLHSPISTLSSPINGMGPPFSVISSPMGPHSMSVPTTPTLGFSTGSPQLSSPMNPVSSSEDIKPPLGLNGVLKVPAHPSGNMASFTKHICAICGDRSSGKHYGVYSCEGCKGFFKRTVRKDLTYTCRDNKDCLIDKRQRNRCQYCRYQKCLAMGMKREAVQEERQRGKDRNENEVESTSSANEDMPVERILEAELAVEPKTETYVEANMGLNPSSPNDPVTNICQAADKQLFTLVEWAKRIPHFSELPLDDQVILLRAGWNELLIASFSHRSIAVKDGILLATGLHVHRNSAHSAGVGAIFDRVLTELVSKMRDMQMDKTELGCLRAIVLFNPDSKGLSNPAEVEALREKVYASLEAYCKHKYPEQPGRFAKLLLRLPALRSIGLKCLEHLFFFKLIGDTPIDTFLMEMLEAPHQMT
Type: cell-based
How it was run: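 Luciferase read-out after 18 h compound exposure of CV-1 cells carrying transfected hFXR plus hRXR expression plasmids, TK-ECRE-luc reporter and pCMX-YFP. Cells cultured in charcoal-stripped FBS before transfection; compounds serially diluted in DMSO.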

Row | SMILES | EC50
1 | COc1ccc([C@H]2CC[C@H](CN(c3cccc(-c4cnc(C5CC5)s4)c3)C(=O)[C@H]3CC[C@H](CC(=O)O)CC3)CC2)nc1C#N [Compound 20.01, 2-(trans-4-(((trans-4-(6-Cyano-5-methoxypyridin-2-yl)cyclohexyl)methyl)(3-(2-cyclopropylthiazol-5-yl)phenyl)carbamoyl)cyclohexyl) acetic acid] | ≤ 250 nM
2 | CCN1CCN(C(=O)O[C@H]2CC[C@H](C(=O)N(C[C@H]3CC[C@H](c4ccc(OC)c(C)n4)CC3)c3cc(-c4coc(C5CC5)n4)ccn3)CC2)CC1 [Compound 6.81, trans-4-((4-(2-Cyclopropyloxazol-4-yl)pyridine-2-yl)((trans-4-(5-methoxy-6-methylpyridin-2-yl)cyclohexyl)methyl)carbamoyl)cyclohexyl 4-ethylpiperazine-1-carboxylate] | ≤ 250 nM
3 | COc1ncc(-c2cccc(N(C[C@H]3CC[C@H](c4ccc(OC)c(C)c4)CC3)C(=O)[C@H]3CC[C@H](C(=O)NS(C)(=O)=O)CC3)c2)s1 [Compound 24.06, trans-N^1-((trans-4-(4-Methoxy-3-methylphenyl)cyclohexyl)methyl)-N^1-(3-(2-methoxythiazol-5-yl)phenyl)-N^4-(methylsulfonyl) cyclohexane-1,4-dicarboxamide] | ≤ 250 nM
4 | COc1ccc([C@H]2CC[C@H](CN(c3cc(-c4coc(C5CC5)n4)ccn3)C(=O)[C@H]3CC[C@H](OC(=O)N4CC(C(C)C)C4)CC3)CC2)nc1C [Compound 7.102, trans-4-((4-(2-Cyclopropyloxazol-4-yl)pyridine-2-yl)((trans-4-(5-methoxy-6-methylpyridin-2-yl)cyclohexyl)methyl)carbamoyl)cyclohexyl 3-isopropylazetidine-1-carboxylate] | ≤ 250 nM
5 | CNCCOCC(=O)N[C@H]1CC[C@H](C(=O)N(C[C@H]2CC[C@H](c3ccc(OC)c(C)c3)CC2)c2cccc(-c3cnc(C4CC4)s3)c2)CC1 [Compound 32.06, trans-N-(3-(2-Cyclopropylthiazol-5-yl)phenyl)-N-((trans-4-(4-methoxy-3-methylphenyl)cyclohexyl)methyl)-4-(2-(2-(methylamino)ethoxy)acetamido) cyclohexanecarboxamide] | ≥ 1000 nM
6 | COC(=O)[C@H]1CC[C@H](C(=O)N(C[C@H]2CC[C@H](c3ccc(N(C)C)nc3)CC2)c2cccc(-c3cnc(C4CC4)s3)c2)CC1 [Compound 18.08, trans-Methyl 4-((3-(2-cyclopropylthiazol-5-yl)phenyl)((trans-4-(6-(dimethylamino)pyridin-3-yl)cyclohexyl)methyl)carbamoyl) cyclohexanecarboxylate] | ≤ 250 nM
7 | COc1ccc([C@H]2CC[C@H](CN(c3cc(-c4cnn(C(C)C)c4)ccn3)C(=O)[C@H]3CC[C@H](OC(=O)N4CC(O)C4)CC3)CC2)nc1C#N [Compound 7.40, trans-4-(((trans-4-(6-Cyano-5-methoxypyridin-2-yl)cyclohexyl)methyl)(4-(1-isopropyl-1H-pyrazol-4-yl)pyridin-2-yl)carbamoyl) cyclohexyl 3-hydroxyazetidine-1-carboxylate] | ≤ 250 nM
8 | COc1ccc([C@H]2CC[C@H](CN(c3cc(-c4cnn(C5CC5)c4)ccn3)C(=O)[C@H]3CC[C@H](OC(=O)N4CC(O)C4)CC3)CC2)nc1C [Compound 7.24, trans-4-((4-(1-Cyclopropyl-1H-pyrazol-4-yl)pyridin-2-yl)((trans-4-(5-methoxy-6-methylpyridin-2-yl)cyclohexyl)methyl)carbamoyl)cyclohexyl 3-hydroxyazetidine-1-carboxylate] | ≤ 250 nM
9 | COc1ncc([C@H]2CC[C@H](CN(c3cccc(-c4cnn(C5CC5)c4)c3)C(=O)[C@H]3CC[C@H](OC(=O)N4CC(O)C4)CC3)CC2)cc1C [Compound 7.25, trans-4-((3-(1-Cyclopropyl-1H-pyrazol-4-yl)phenyl)((trans-4-(6-methoxy-5-methylpyridin-3-yl)cyclohexyl)methyl)carbamoyl)cyclohexyl 3-hydroxyazetidine-1-carboxylate] | ≤ 250 nM
10 | COc1ccc([C@H]2CC[C@H](CN(c3cccc(-c4coc(C5CC5)n4)c3)C(=O)[C@H]3CC[C@H](CC(=O)O)CC3)CC2)nc1C#N [Compound 21.13, 2-(trans-4-(((trans-4-(6-Cyano-5-methoxypyridin-2-yl)cyclohexyl)methyl)(3-(2-cyclopropyloxazol-4-yl)phenyl)carbamoyl)cyclohexyl)acetic acid] | ≤ 250 nM
11 | COc1ncc(-c2cccc(N(C[C@H]3CC[C@H](c4ccc(OC)c(C)c4)CC3)C(=O)[C@H]3CC[C@H](NC(C)=O)CC3)c2)s1 [Compound 25.04, trans-4-Acetamido-N-((trans-4-(4-methoxy-3-methylphenyl)cyclohexyl)methyl)-N-(3-(2-methoxythiazol-5-yl)phenyl)cyclohexanecarboxamide] | ≤ 250 nM

More lines, now with the values ahead:

Row | EC50 | SMILES
12 | ≤ 250 nM | COc1ccc([C@H]2CC[C@H](CN(c3cc(-c4cnn(C(C)C)c4)ccn3)C(=O)[C@H]3CC[C@H](OC(=O)N4CCOCC4)CC3)CC2)cc1C#N [Compound 6.37, trans-4-(((trans-4-(3-Cyano-4-methoxyphenyl)cyclohexyl)methyl)(4-(1-isopropyl-1H-pyrazol-4-yl)pyridin-2-yl)carbamoyl)cyclohexyl morpholine-4-carboxylate]
13 | ≤ 250 nM | C#CC1CN(C(=O)O[C@H]2CC[C@H](C(=O)N(C[C@H]3CC[C@H](c4ccc(OC)c(C)n4)CC3)c3cc(-c4coc(C5CC5)n4)ccn3)CC2)C1 [Compound 7.98, trans-4-((4-(2-Cyclopropyloxazol-4-yl)pyridine-2-yl)((trans-4-(5-methoxy-6-methylpyridin-2-yl)cyclohexyl)methyl)carbamoyl)cyclohexyl 3-ethynylazetidine-1-carboxylate]
14 | ≤ 250 nM | CNC(=O)O[C@H]1CC[C@H](C(=O)N(CC23CCC(c4ccc(N(C)C)nc4)(CC2)CC3)c2cccc(-c3cnc(C4CC4)s3)c2)CC1 [Compound 1.02, 4-((3-(2-Cyclopropylthiazol-5-yl)phenyl)((4-(6-(dimethylamino)pyridin-3-yl)bicyclo[2.2.2]octan-1-yl)methyl)carbamoyl)cyclohexyl trans-methylcarbamate]
15 | ≤ 250 nM | COc1ccc([C@H]2CC[C@H](CN(c3cccc(-c4cnc(C5CC5)s4)c3)C(=O)[C@H]3CC[C@H](NC(=O)C(C)(C)O)CC3)CC2)cc1C [Compound 27, trans-N-(3-(2-Cyclopropylthiazol-5-yl)phenyl)-4-(2-hydroxy-2-methylpropanamido)-N-((trans-4-(4-methoxy-3-methylphenyl)cyclohexyl)methyl)cyclohexanecarboxamide]
16 | ≤ 250 nM | COc1ccc([C@H]2CC[C@H](CN(c3cc(-c4coc(C(C)C)n4)ccn3)C(=O)[C@H]3CC[C@H](CC(=O)O)CC3)CC2)cc1C#N [Compound 21.11, 2-(trans-4-(((trans-4-(3-Cyano-4-methoxyphenyl)cyclohexyl)methyl)(4-(2-isopropyloxazol-4-yl)pyridin-2-yl)carbamoyl)cyclohexyl)acetic acid]
17 | ≤ 250 nM | CNC(=O)O[C@H]1CC[C@H](C(=O)N(C[C@H]2CC[C@H](c3cnc(OC)c(C)c3)CC2)c2cccc(-c3cnn(C4CC4)c3)c2)CC1 [Compound 5.16, trans-4-((3-(1-Cyclopropyl-1H-pyrazol-4-yl)phenyl)((trans-4-(6-methoxy-5-methylpyridin-3-yl)cyclohexyl)methyl)carbamoyl)cyclohexyl methylcarbamate]
18 | ≤ 250 nM | CCNC(=O)O[C@H]1CC[C@H](C(=O)N(C[C@H]2CC[C@H](c3ccc(OC)c(C#N)c3)CC2)c2cc(-c3cnn(C(C)C)c3)ccn2)CC1 [Compound 5, trans-4-(((trans-4-(3-Cyano-4-methoxyphenyl)cyclohexyl)methyl)(4-(1-isopropyl-1H-pyrazol-4-yl)pyridin-2-yl)carbamoyl)cyclohexyl ethylcarbamate]
19 | ≤ 250 nM | COc1ccc([C@H]2CC[C@H](CN(c3cc(-c4cnc(C(C)C)s4)ccn3)C(=O)[C@H]3CC[C@H](OC(=O)N4CC(O)C4)CC3)CC2)nc1C [Compound 7.07, trans-4-((4-(2-Isopropylthiazol-5-yl)pyridin-2-yl)((trans-4-(5-methoxy-6-methylpyridin-2-yl)cyclohexyl)methyl)carbamoyl)cyclohexyl 3-hydroxyazetidine-1-carboxylate]
20 | ≤ 250 nM | COc1ncc([C@H]2CC[C@H](CN(c3cc(-c4coc(C5CC5)n4)ccn3)C(=O)[C@H]3CC[C@H](OC(=O)N4CC(OC)C4)CC3)CC2)cc1C [Compound 7.93, trans-4-((4-(2-Cyclopropyloxazol-4-yl)pyridine-2-yl)((trans-4-(6-methoxy-5-methylpyridin-3-yl)cyclohexyl)methyl)carbamoyl)cyclohexyl 3-methoxyazetidine-1-carboxylate]
